ChEMBL document CHEMBL3600345, “Docking of competitive inhibitors to the P2X7 receptor family reveals key differences responsible for changes in response between rat and human” (Bioorg Med Chem Lett, 2015)
pIC50: −log10 of the molar value.

Columns and labels:
[1] = target: T1, P2X purinoceptor 7 (Homo sapiens, UniProt Q99572); assay: Inhibition of human P2X7 receptor
T1 sequence (Q99572 whole entry): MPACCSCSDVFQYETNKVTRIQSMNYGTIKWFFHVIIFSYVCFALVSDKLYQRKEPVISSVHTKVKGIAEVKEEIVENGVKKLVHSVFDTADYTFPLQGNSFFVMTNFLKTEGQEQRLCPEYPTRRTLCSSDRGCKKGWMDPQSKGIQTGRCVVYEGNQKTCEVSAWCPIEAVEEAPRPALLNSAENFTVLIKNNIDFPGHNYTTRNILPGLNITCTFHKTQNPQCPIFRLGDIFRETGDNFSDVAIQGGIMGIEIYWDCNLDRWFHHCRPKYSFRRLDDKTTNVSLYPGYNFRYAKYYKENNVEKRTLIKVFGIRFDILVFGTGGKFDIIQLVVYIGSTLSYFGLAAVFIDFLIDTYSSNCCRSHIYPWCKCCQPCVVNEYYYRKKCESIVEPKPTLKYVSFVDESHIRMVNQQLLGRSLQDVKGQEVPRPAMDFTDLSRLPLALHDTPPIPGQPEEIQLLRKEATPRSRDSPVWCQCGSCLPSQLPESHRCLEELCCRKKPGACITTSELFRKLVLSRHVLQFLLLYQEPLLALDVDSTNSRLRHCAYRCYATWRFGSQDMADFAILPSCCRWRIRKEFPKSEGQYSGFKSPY

[2] = target: T2, P2X purinoceptor 7 (Rattus norvegicus, UniProt Q64663); assay: Inhibition of rat P2X7 receptor
T2 sequence (Q64663 whole entry): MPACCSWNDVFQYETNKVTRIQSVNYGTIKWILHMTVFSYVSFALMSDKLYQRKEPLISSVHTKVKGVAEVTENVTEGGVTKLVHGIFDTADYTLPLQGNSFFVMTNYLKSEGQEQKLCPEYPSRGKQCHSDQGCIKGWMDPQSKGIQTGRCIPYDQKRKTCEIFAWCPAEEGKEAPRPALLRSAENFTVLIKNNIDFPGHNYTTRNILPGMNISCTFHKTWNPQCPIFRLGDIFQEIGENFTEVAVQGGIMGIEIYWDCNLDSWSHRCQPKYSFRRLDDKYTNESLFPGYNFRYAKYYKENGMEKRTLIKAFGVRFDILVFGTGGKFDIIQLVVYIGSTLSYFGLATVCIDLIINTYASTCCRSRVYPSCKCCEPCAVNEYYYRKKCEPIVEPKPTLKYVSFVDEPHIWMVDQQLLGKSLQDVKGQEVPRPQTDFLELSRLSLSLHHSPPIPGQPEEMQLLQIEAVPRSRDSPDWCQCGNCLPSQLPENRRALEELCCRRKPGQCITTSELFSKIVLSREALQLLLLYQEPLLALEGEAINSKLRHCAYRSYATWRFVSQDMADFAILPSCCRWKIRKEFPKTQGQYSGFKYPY

[3] = Inhibition of rhesus macaque P2X7 receptor; parameters: species or system Macaca mulatta
[4] = target: T3, P2X purinoceptor (Cavia porcellus, UniProt A9QW74); assay: Inhibition of guinea pig P2X7 receptor
T3 sequence (A9QW74 whole entry): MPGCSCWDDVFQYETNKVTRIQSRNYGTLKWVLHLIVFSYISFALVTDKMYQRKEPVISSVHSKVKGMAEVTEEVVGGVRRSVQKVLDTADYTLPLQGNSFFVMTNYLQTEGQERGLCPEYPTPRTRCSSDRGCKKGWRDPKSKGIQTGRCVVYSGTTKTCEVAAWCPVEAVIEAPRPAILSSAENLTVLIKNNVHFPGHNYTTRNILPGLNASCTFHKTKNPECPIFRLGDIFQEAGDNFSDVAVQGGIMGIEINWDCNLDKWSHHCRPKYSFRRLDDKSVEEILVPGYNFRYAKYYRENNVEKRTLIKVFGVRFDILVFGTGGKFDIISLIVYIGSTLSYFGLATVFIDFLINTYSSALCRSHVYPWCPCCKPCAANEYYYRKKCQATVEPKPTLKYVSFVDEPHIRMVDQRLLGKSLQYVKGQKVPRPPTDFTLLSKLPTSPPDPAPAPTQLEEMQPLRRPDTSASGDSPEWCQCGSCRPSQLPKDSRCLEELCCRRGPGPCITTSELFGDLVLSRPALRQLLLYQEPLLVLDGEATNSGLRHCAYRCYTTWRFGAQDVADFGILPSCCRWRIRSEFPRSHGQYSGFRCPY

[5] = target: T4, P2X7 purinoceptor (Canis lupus familiaris, UniProt Q64F92); assay: Inhibition of dog P2X7 receptor
T4 sequence (Q64F92 whole entry): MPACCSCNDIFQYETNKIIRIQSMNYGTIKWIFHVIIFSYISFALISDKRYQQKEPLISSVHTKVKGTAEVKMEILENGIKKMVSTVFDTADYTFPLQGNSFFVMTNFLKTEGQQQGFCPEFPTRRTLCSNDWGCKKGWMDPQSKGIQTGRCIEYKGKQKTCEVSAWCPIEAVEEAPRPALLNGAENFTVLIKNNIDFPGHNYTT

Row | Structure (SMILES) | pIC50 [1] | pIC50 [2] | pIC50 [3] | pIC50 [4] | pIC50 [5]
1 | C[S+]([O-])c1ccc(-c2nc(-c3ccncc3)c(-c3ccc(F)cc3)[nH]2)cc1 (stereo not given) [SB-203580] | 5.30 | < 4.52 |  |  | 
2 | CN([C@@H](Cc1ccc(OS(=O)(=O)c2cccc3cnccc23)cc1)C(=O)N1CCN(c2ccccc2)CC1)S(=O)(=O)c1cccc2cnccc12 | 7.00 | < 4.00 | 7.07 | 6.89 | 8.00
3 | O=C1CSC(=O)N1C(CCc1ccncc1)COc1ccc(-c2cccc([N+](=O)[O-])c2)cc1 (stereo not given) | 7.51 | < 4.00 | 7.64 |  | 
